Data as given in ChEMBL document CHEMBL2163248, “Classification of inhibitors of hepatic organic anion transporting polypeptides (OATPs): influence of protein expression on drug-drug interactions” (J Med Chem, 2012).
*1 amine or outer side, *2 acyl side, *3 side chain or, on linkers, in order; H or OH if unused. Where a SMILES comes first, the peptide text is derived from it. Bridges are numbered along the chain shown (N, C = ends). [ ]: non-standard residue; d: D form. Trp(2-yl) = O=C([C@H](Cc1c([*:3])[nH]c2ccccc12)N[*:1])[*:2]; Leu(4R-OH,5-OH) = C[C@](O)(CO)C[C@H](N)C(=O)O; cisHyp = O=C(O)[C@@H]1C[C@H](O)CN1

What was measured:
[1] = target: T1, Solute carrier organic anion transporter family member 2B1 (Homo sapiens, UniProt O94956); assay: Inhibition of human liver OATP2B1 expressed in HEK293 Flp-In cells assessed as reduction in [3H]E3S uptake at 20 uM incubated for 5 mins by scintillation counting; details: hek293, 5 min
T1 sequence (O94956 whole entry): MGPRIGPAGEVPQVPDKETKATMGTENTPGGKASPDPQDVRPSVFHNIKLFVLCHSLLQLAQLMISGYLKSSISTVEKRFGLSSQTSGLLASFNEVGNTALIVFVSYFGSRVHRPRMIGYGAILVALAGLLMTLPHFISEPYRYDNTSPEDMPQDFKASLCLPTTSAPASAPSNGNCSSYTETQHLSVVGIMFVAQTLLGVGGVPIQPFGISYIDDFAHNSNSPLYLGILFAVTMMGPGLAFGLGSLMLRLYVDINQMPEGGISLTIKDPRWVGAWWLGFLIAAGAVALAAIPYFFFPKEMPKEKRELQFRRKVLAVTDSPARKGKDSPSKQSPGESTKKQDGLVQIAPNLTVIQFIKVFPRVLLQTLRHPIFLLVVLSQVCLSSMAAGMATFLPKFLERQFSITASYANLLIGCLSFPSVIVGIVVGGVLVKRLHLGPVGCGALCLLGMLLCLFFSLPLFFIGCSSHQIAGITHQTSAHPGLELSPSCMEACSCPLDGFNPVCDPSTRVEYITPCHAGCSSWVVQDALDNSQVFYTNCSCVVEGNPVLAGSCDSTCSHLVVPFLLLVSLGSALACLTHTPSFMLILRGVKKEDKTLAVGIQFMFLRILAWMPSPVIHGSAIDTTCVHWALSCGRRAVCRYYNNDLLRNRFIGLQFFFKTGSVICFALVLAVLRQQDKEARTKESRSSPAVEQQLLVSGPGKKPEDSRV

[2] = target: T2, Solute carrier organic anion transporter family member 1B1 (Homo sapiens, UniProt Q9Y6L6); assay: Inhibition of human liver OATP1B1 expressed in HEK293 Flp-In cells assessed as reduction in E17-betaG uptake at 20 uM by scintillation counting; details: hek293, 20 µM
T2 sequence (Q9Y6L6 whole entry): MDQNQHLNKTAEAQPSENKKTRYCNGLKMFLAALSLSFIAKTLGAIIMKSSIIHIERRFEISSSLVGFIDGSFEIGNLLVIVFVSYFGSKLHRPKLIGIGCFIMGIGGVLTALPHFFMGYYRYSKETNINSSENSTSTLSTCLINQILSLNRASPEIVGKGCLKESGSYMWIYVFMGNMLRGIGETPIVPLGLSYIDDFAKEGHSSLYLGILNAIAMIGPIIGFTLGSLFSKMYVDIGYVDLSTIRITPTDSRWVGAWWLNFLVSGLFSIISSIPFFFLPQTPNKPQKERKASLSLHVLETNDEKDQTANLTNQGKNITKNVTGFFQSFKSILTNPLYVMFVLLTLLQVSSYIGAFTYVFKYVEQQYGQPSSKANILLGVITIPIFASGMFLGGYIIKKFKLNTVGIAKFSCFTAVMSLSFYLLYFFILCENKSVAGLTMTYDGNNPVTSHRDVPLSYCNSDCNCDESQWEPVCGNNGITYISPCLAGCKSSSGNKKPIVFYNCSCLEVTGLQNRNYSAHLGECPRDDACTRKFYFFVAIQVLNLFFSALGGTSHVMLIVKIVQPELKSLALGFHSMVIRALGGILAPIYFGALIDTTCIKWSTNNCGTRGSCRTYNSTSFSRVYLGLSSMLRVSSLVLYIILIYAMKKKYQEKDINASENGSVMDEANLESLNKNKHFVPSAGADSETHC

[3] = target: T3, Solute carrier organic anion transporter family member 1B3 (Homo sapiens, UniProt Q9NPD5); assay: Inhibition of human liver OATP1B3 expressed in HEK293 Flp-In cells assessed as reduction in [3H]E17-betaG uptake at 20 uM incubated for 5 mins by scintillation counting; details: hek293, 5 min
T3 sequence (Q9NPD5 whole entry): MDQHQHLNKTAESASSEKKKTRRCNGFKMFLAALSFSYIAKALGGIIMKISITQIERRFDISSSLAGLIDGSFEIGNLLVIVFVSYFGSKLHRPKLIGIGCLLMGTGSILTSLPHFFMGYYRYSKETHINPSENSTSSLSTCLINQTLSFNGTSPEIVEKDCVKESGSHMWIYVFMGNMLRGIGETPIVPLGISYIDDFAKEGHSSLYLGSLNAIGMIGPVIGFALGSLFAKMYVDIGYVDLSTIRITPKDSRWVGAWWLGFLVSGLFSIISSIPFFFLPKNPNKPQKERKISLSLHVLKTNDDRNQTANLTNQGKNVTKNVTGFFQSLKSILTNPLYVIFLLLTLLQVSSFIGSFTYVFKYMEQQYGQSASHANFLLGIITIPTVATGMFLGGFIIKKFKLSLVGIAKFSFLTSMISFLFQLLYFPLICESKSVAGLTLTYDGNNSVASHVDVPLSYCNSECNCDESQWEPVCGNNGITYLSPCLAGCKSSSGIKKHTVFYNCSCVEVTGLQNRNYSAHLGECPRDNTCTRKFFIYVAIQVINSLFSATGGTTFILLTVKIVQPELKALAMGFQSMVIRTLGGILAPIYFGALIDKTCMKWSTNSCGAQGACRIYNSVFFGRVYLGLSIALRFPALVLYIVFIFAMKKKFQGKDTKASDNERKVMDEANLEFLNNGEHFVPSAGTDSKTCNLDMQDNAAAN

Structure (SMILES)	INH [1] [%]	INH [2] [%]	INH [3] [%]
Cc1ncc2n1-c1ccc(Cl)cc1C(c1ccccc1F)=NC2 [MIDAZOLAM]	22.7	32.9	6.7
CC#C[C@]1(O)CC[C@H]2[C@@H]3CCC4=CC(=O)CCC4=C3[C@@H](c3ccc(N(C)C)cc3)C[C@@]21C [MIFEPRISTONE]	70.7	81.2	80.3
O=C1c2c(O)ccc(O)c2C(=O)c2c(NCCNCCO)ccc(NCCNCCO)c21 [MITOXANTRONE]	48.3	27.2	67.9
CN(C)C(=O)CCSC(SCCC(=O)O)c1cccc(/C=C/c2ccc3ccc(Cl)cc3n2)c1 (stereo not given) [MK-571]	75.2	88.5	80.7
O=C(NCCN1CCOCC1)c1ccc(Cl)cc1 [MOCLOBEMIDE]	27.5	1.7	-3.3
O=c1c(O)c(-c2ccc(O)cc2O)oc2cc(O)cc(O)c12 [MORIN]	71.3	85.2	78.5
O=C1C[C@@H](c2ccc(O)cc2)Oc2cc(O)cc(O)c21 [NARINGENIN]	32.4	34.8	-57.2
C[C@@H]1O[C@@H](O[C@H]2[C@H](Oc3cc(O)c4c(c3)O[C@H](c3ccc(O)cc3)CC4=O)O[C@H](CO)[C@@H](O)[C@@H]2O)[C@H](O)[C@H](O)[C@H]1O [NARINGIN]	47.1	34	37.7
CCc1nn(CCCN2CCN(c3cccc(Cl)c3)CC2)c(=O)n1CCOc1ccccc1 [NEFAZODONE]	61.5	12	61.4
COC(=O)C1=C(C)NC(C)=C(C(=O)OCCN(C)Cc2ccccc2)C1c1cccc([N+](=O)[O-])c1 (stereo not given) [NICARDIPINE]	31.8	65.1	10.1
CN1CCC[C@H]1c1cccnc1 [NICOTINE]	-16.5	6.9	11
CNC(=O)c1cccnc1 [NICOTINYL METHYLAMIDE]	14.5	71.4	-0.5
C=C(C)[C@@H]1CCC2=CC(=O)C[C@@H](C)[C@]2(C)C1 [NOOTKATONE]	-72.2	25.6	-3.2
CO[C@@H]1[C@@H](OC(N)=O)[C@@H](O)[C@H](Oc2ccc3c(O)c(NC(=O)c4ccc(O)c(CC=C(C)C)c4)c(=O)oc3c2C)OC1(C)C [NOVOBIOCIN]	85.6	58.1	84.2
COc1ccc2[nH]c([S+]([O-])Cc3ncc(C)c(OC)c3C)nc2c1 (stereo not given) [OMEPRAZOLE]	11.3	15.9	29.5
C[C@@H]1O[C@@H](O[C@H]2C[C@@H](O)[C@]3(CO)[C@H]4[C@H](O)C[C@]5(C)[C@@H](C6=CC(=O)OC6)CC[C@]5(O)[C@@H]4CC[C@]3(O)C2)[C@H](O)[C@H](O)[C@H]1O [OUABAIN]	-24.1	50.5	20.5
COc1ccnc(C[S+]([O-])c2nc3ccc(OC(F)F)cc3[nH]2)c1OC (stereo not given) [PANTOPRAZOLE]	17.3	15.2	23.4
Fc1ccc([C@@H]2CCNC[C@H]2COc2ccc3c(c2)OCO3)cc1 [PAROXETINE]	37.5	33	12.7

Structure (SMILES)	INH [1] [%]	INH [2] [%]	INH [3] [%]
CC1(C)S[C@@H]2[C@H](NC(=O)Cc3ccccc3)C(=O)N2[C@H]1C(=O)O [PENICILLIN G]	7.6	8.8	40.9
C[C@@H]1NC(=O)[C@H](C[C@@](C)(O)CO)NC(=O)[C@@H]2Cc3c([nH]c4ccccc34)SC[C@H](NC(=O)[C@@H]([C@H](C)O)NC1=O)C(=O)N1C[C@@H](O)C[C@H]1C(=O)N[C@@H](C)C(=O)N2 [PHALLOIDIN] (cyclo(A[dT]C[cisHyp]A[Trp(2-yl)][Leu(4R-OH,5-OH)]); thioether 3-6)	24.1	26.1	36.2
CCOc1ccc(NC(C)=O)cc1 [PHENACETIN]	-0.1	34.2	-0.9
[H]/N=C(/N)N/C(=N/[H])NCCc1ccccc1 [PHENFORMIN]	16.7	34.5	-2.3
CCC1(c2ccccc2)C(=O)NC(=O)NC1=O [PHENOBARBITAL]	11	-3.9	7.3
Cc1cccc(C)c1NC(=O)CC12CCCN1CCC2 [PILSICAINIDE]	10.8	11.2	-16.8
CC(C)NCC(O)COc1cccc2[nH]ccc12 (stereo not given) [PINDOLOL]	-10.8	-24.7	24.5
CCc1ccc(CCOc2ccc(CC3SC(=O)NC3=O)cc2)nc1 (stereo not given) [PIOGLITAZONE]	-9.9	21.9	5.6
CN1C(C(=O)Nc2ccccn2)=C(O)c2ccccc2S1(=O)=O [PIROXICAM]	68.3	16.2	23.5
O=C(O)C[C@H](O)C[C@H](O)/C=C/c1c(C2CC2)nc2ccccc2c1-c1ccc(F)cc1 [PITAVASTATIN]	63.7	97.4	94.3
COc1cc2nc(N3CCN(C(=O)c4ccco4)CC3)nc(N)c2cc1OC [PRAZOSIN]	1	25.1	36.1
C[C@]12C=CC(=O)C=C1CC[C@@H]1[C@@H]2[C@@H](O)C[C@@]2(C)[C@H]1CC[C@]2(O)C(=O)CO [PREDNISOLONE]	27.6	2.3	9.6
CCN(CC)CCNC(=O)c1ccc(N)cc1 [PROCAINAMIDE]	17.8	21.6	3.4
CC(=O)[C@H]1CC[C@H]2[C@@H]3CCC4=CC(=O)CC[C@]4(C)[C@H]3CC[C@]12C [PROGESTERONE]	-362.6	63.9	33.4
CC(C)NCC(O)COc1cccc2ccccc12 (stereo not given) [PROPRANOLOL]	10.1	8.9	12.8
O=c1c(O)c(-c2ccc(O)c(O)c2)oc2cc(O)cc(O)c12 [QUERCETIN]	72.6	77	21.6
COc1ccccc1OCC(O)CN1CCN(CC(=O)Nc2c(C)cccc2C)CC1 (stereo not given) [RANOLAZINE]	41.6	4.3	-14.9
